Test results published in the supplement of paper PMC10331698.
± gives the standard deviation of the averaged measurements.

How the values were obtained:
Assay in all cases: level (log10 ratio to DMSO vehicle control); higher = higher biomarker level / cell amount than vehicle control
Conditions in all cases: in DMSO
[1] = compound: O=S(=O)(O)C(F)(F)C(F)(F)C(F)(F)C(F)(F)F [Perfluorobutanesulfonic acid]
Protocol: (§1)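 BioMAP Diversity Plus panel of 12 human primary cell co-culture systems (3C, 4H, LPS, SAg, BT, BF4T, BE3C, CASM3C, HDF3CGF, KF3CT, MyoF, Mphg). Compounds were added 1 h before stimulation and left for 24 h (MyoF 48 h; BT 72 h for soluble read-outs or 6 d for IgG). Biomarkers were read by ELISA, cytotoxicity by SRB, PBMC viability and proliferation by Alamar Blue. Each well value was divided by the mean of 8 DMSO control wells on the same plate and log10 transformed; duplicate blinded samples were tested at 4 concentrations.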

[2] = compound: O=C(O)CCC(F)(F)C(F)(F)C(F)(F)C(F)(F)C(F)(F)F [2H,2H,3H,3H-Perfluorooctanoic acid]
Protocol: as §1

[3] = compound: OCC(F)(F)C(F)(F)C(F)(F)C(F)(F)C(F)(F)C(F)F [1H,1H,7H-Dodecafluoro-1-heptanol]
Protocol: as §1

Row | Test System | level (log10) ([1]; 6700 nM) | level (log10) ([1]; 20000 nM) | level (log10) ([1]; 60000 nM) | level (log10) ([2]; 6700 nM) | level (log10) ([2]; 20000 nM) | level (log10) ([2]; 60000 nM) | level (log10) ([3]; 6700 nM) | level (log10) ([3]; 20000 nM) | level (log10) ([3]; 60000 nM)
1 | CASM3C:CD87/uPAR | -0.0275 ± 0.03 | -0.047 ± 0.045 | -0.0575 ± 0.0092 | -0.008 ± 0.013 | -0.011 ± 0.0071 | -0.0305 ± 0.0092 | -0.001 ± 0.016 | 0.0035 ± 0.021 | -0.0055 ± 0.023
2 | CASM3C:CD106/VCAM-1 | -0.0465 ± 0.021 | -0.0255 ± 0.025 | -0.033 ± 0.0057 | 0.0025 ± 0.019 | 0.0115 ± 0.044 | 0.01 ± 0.018 | -0.0025 ± 0.022 | -0.017 ± 0.0057 | -0.017 ± 0.024
3 | CASM3C:CD141/Thrombomodulin | 0.01 ± 0.028 | -0.0095 ± 0.016 | 0.0075 ± 0.016 | -0.01 ± 0.04 | -0.036 ± 0.052 | -0.014 | 0.0095 ± 0.052 | 0.0055 ± 0.0064 | -0.0055 ± 0.047
4 | CASM3C:CD142/Tissue Factor | -0.0085 ± 0.0035 | -0.0115 ± 0.018 | 0.0135 ± 0.012 | -0.0115 ± 0.022 | -0.0505 ± 0.0092 | -0.0095 ± 0.022 | 0.0235 ± 0.043 | 0.0015 ± 0.0064 | -0.0185 ± 0.0035
5 | CASM3C:CXCL8/IL-8 | 0.0255 ± 0.049 | 0.0255 ± 0.025 | 0.0375 ± 0.025 | 0.0055 ± 0.018 | -0.0055 ± 0.0021 | 0.0175 ± 0.00071 | 0.0055 ± 0.012 | 0.005 ± 0.013 | 0.0055 ± 0.00071
6 | CASM3C:CXCL9/MIG | 0.01 ± 0.028 | 0.0135 ± 0.035 | 0.0465 ± 0.0092 | -0.0185 ± 0.00071 | -0.0285 ± 0.0092 | 0.0045 ± 0.042 | 0.002 ± 0.0071 | 0.007 ± 0.0014 | 0.0195 ± 0.005
7 | CASM3C:HLA-DR | -0.0085 ± 0.0035 | -0.0075 ± 0.00071 | -0.0025 ± 0.0078 | 0.004 ± 0.0057 | -0.026 ± 0.021 | -0.014 | -0.0045 ± 0.03 | 0.0075 ± 0.0064 | 0.0045 ± 0.0021
8 | CASM3C:IL-6 | -0.032 ± 0.028 | -0.0375 ± 0.0021 | -0.015 ± 0.0057 | -0.0035 ± 0.0064 | -0.008 ± 0.0057 | 0.0145 ± 0.05 | -0.0165 ± 0.035 | -0.024 ± 0.021 | 0.008 ± 0.028
9 | CASM3C:LDLR | -0.0305 ± 0.0035 | -0.0255 ± 0.025 | -0.0345 ± 0.053 | 0.0005 ± 0.0021 | -0.001 ± 0.018 | 0.0095 ± 0.047 | 0.0045 ± 0.05 | -0.0135 ± 0.028 | 0.014 ± 0.024
10 | CASM3C:M-CSF | -0.007 ± 0.031 | -0.002 | 0.0025 ± 0.011 | -0.006 ± 0.0028 | -0.0035 ± 0.0064 | 0.0185 ± 0.06 | -0.0045 ± 0.0035 | -0.0185 ± 0.0035 | 0.0145 ± 0.039
11 | CASM3C:PAI-I | -0.0095 ± 0.012 | 0.0035 ± 0.0064 | 0.007 ± 0.0099 | -0.0015 ± 0.013 | -0.0045 ± 0.019 | -0.012 ± 0.0099 | 0.004 ± 0.0057 | -0.0005 ± 0.0064 | 0.0045 ± 0.011
12 | CASM3C:Proliferation | -0.0455 ± 0.044 | -0.0405 ± 0.013 | -0.019 ± 0.017 | -0.014 ± 0.045 | 0.002 ± 0.0014 | 0.011 ± 0.04 | 0.004 ± 0.0042 | -0.006 ± 0.025 | -0.018 ± 0.013
13 | CASM3C:SRB | -0.0045 ± 0.0035 | -0.0045 ± 0.0035 | -0.008 ± 0.0028 | -0.0045 ± 0.015 | -0.0105 ± 0.00071 | -0.0105 ± 0.0021 | -0.0045 ± 0.00071 | -0.006 ± 0.0028 | -0.0015 ± 0.0021
14 | CASM3C:Serum Amyloid A | -0.0575 ± 0.08 | -0.0795 ± 0.071 | -0.068 ± 0.055 | -0.0045 ± 0.0078 | -0.0195 ± 0.0092 | -0.0495 ± 0.028 | -0.019 ± 0.045 | -0.01 ± 0.031 | -0.0275 ± 0.037
15 | HDF3CGF:CCL2/MCP-1 | -0.0075 ± 0.037 | 0.0005 ± 0.025 | -0.023 ± 0.03 | 0.0015 ± 0.029 | 0.003 ± 0.0085 | 0.0065 ± 0.0078 | 0.012 ± 0.024 | 0.0105 ± 0.03 | 0.018 ± 0.017
